# Data taken from patent publication US20080108612A1, “Use of Purine Derivatives as HSP90 Protein Inhibitors” (AVENTIS PHARMA S.A., priority 2005, published 2008).
# Structures can show the parent of a compound that is named as a salt.
# Molecular target: Hsp82 (Saccharomyces cerevisiae, UniProt P02829)
# Assay: Inhibition of the ATPase activity of Hsp82 in the enzymatic coupling system (pyruvate kinase / lactate dehydrogenase)
# Assay type: biochemical
# Conditions: not given
# Source text: The formation of ADP due to the ATPase activity of Hsp82 was used to develop another method for evaluating the enzymatic activity of this enzyme by application of an enzymatic coupling system involving pyruvate kinase (PK) and lactate dehydrogenase (LDH). In this kinetic-type spectrophotometric method, the PK catalyzes the formation of ATP and of pyruvate from phosphoenol pyruvate (PEP) and from the ADP produced by Hsp82. The pyruvate formed, which is a substrate for LDH, is then converted to lactate in the presence of NADH. In this case, the decrease in NADH concentration, measured by the decrease in absorbance at the wavelength of 340 nm, is proportional to the concentration of ADP produced by Hsp82.
# The products tested were incubated in a reaction volume of 100 μl of buffer composed of 100 mM Hepes-NaOH (pH 7.5), 5 mM MgCl2, 1 mM DTT, 150 mM KCl, 0.3 mM NADH, 2.5 mM PEP and 250 μM ATP. This mixture was preincubated at 37° C. for 30 min before adding 3.77 units of LDH and 3.77 units of PK. The reaction was initiated by addition of the product to be evaluated, in variable concentrations, and of Hsp82, at the concentration of 1 μM. Measurement of the enzymatic activity of Hsp82 was then carried out, continuously, in a microplate reader at 37° C., at the wavelength of 340 nm. The initial rate of the reaction was obtained by measuring the slope of the tangent at the origin of the curve recorded. The enzymatic activity was expressed in μM of ADP formed per minute. The effect of the various products tested was expressed as a percentage inhibition of the ATPase activity.
# The inhibitory activities on the ATPase activity of Hsp82 obtained with the products of the invention in the enzymatic coupling system are given in the table below, according to the criteria below for inhibition of the ATPase activity of Hsp82: […]
# Chain of Hsp82 (P02829 whole entry): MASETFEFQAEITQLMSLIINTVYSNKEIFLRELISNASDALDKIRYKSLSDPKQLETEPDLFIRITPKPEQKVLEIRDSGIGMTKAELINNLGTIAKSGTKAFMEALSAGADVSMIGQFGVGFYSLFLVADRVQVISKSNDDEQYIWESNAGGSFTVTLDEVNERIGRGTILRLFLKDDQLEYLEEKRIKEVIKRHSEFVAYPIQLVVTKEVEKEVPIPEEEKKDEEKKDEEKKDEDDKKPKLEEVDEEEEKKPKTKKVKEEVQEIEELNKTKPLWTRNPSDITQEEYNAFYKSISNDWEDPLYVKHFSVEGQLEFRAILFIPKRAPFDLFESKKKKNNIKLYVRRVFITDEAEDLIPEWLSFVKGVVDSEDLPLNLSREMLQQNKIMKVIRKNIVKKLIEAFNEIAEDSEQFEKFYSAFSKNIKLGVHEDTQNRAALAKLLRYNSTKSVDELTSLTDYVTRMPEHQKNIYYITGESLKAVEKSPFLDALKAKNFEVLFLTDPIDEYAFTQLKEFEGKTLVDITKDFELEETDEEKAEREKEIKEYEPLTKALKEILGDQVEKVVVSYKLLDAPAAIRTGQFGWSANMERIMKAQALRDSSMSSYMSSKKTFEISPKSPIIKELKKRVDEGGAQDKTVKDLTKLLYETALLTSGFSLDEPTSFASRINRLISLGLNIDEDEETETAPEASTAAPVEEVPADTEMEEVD
row,Structure (SMILES),IC50
1,"CC(Nc1nc(Cl)nc2[nH]cnc12)c1ccccc1 (racemic) [Example 3, 2-chloro-6-(1(R,S)-phenylethyl)amino-1H-purine]",10 to 100 µM

# Same assay, conditions: ATPase activity of Hsp82, PK/LDH enzymatic coupling system, 1 μM Hsp82, 250 μM ATP, 37° C., absorbance at 340 nm; read-out: IC50
row,IC50,Structure (SMILES)
1,1 to 10 µM,Cl.c1ccc(CN2CCN(c3ncnc4[nH]cnc34)CC2)cc1 [Example 1]
2,10 to 100 µM,"Clc1nc(OCc2ccccc2)c2nc[nH]c2n1 [Example 2, 2-chloro-6-phenylmethyloxy-1H-purine]"
3,10 to 100 µM,"Clc1nc(NCCN2CCOCC2)c2nc[nH]c2n1 [Example 4, 2-chloro-6-[2-(morpholin-4-yl)ethylamino]-1H-purine]"
4,10 to 100 µM,"c1csc(CNc2[nH]cnc3ncnc2-3)c1 [Example 5, 6-(thiophen-2-yl)methylamino-1H-purine]"
5,10 to 100 µM,Clc1nc(NCCNCc2ccccc2)c2nc[nH]c2n1 [Example 6]
6,10 to 100 µM,"CCOC(=O)CC1CCN(c2ncnc3[nH]cnc23)CC1 [Example 8, 6-[4-(ethyloxycarbonyl)methylpiperidin-1-yl]-1H-purine]"
7,1 to 10 µM,"c1nc(N2CCCCC2)c2nc[nH]c2n1 [Example 9, 6-(piperidin-1-yl)-1H-purine]"
8,1 to 10 µM,"c1ccc(N2CCN(c3ncnc4[nH]cnc34)CC2)nc1 [Example 10, 6-[4-(pyridin-2-yl)piperazinyl]-1-H-purine monohydrochloride]"

# Tested on: not given
# Assay: not given
# Conditions: not given
row,melting point,Structure (SMILES)
1,258 to 260 °C,Cl.c1ccc(CN2CCN(c3ncnc4[nH]cnc34)CC2)cc1 [Example 1]
